Reference: PubChem BioAssay (NCI)
Values joined by “and” are separate entries in the source; they are usually repeats but may differ in a detail not shown here. Equal values may be shown once.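 In this assay, cells in 96-well plates receive the compound at five concentrations for 48 hours. Endpoints are linearly interpolated between the surrounding concentrations. GI50 is the concentration that inhibits growth by half. TGI: total growth inhibition.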

Columns and labels:
Experiment in all cases: inhibition of tumour cell growth, NCI panel, 48 h
HOP-62 NSCLC = test system: HOP-62 NSCLC
HOP-92 NSCLC = test system: HOP-92 NSCLC
MDA-MB-231 breast = test system: MDA-MB-231 breast
MDA-MB-435 = test system: MDA-MB-435
NCI-H460 lung = test system: NCI-H460 lung
OVCAR-5 ovarian = test system: OVCAR-5 ovarian
RPMI-8226 leukemia = test system: RPMI-8226 leukemia
SF-295 CNS = test system: SF-295 CNS
TK-10 renal = test system: TK-10 renal
UACC-62 melanoma = test system: UACC-62 melanoma

SMILES	GI50 (HOP-62 NSCLC)	TGI (HOP-62 NSCLC)	GI50 (HOP-92 NSCLC)	TGI (HOP-92 NSCLC)	GI50 (MDA-MB-231 breast)	TGI (MDA-MB-231 breast)	GI50 (MDA-MB-435)	TGI (MDA-MB-435) [µM]	GI50 (NCI-H460 lung)	TGI (NCI-H460 lung)	GI50 (OVCAR-5 ovarian)	TGI (OVCAR-5 ovarian) [µM]	GI50 (RPMI-8226 leukemia)	TGI (RPMI-8226 leukemia)	GI50 (SF-295 CNS)	TGI (SF-295 CNS) [µM]	GI50 (TK-10 renal)	TGI (TK-10 renal)	GI50 (UACC-62 melanoma)	TGI (UACC-62 melanoma)
COc1cc(-c2nn(-c3cccc(NC(=O)CCN4CCN(C)CC4)c3)cc2-c2ccncc2)ccc1Cl	1.36 µM	4.38 µM	0.675 µM	6.42 µM	1.69 µM	3.66 µM	0.283 µM	1.13	0.532 µM	2.28 µM	2.06 µM	5.82	1.77 µM	4.56 µM	0.968 µM	2.75	3.8 µM	14.6 µM	1.04 µM	2.66 µM
Cc1cc2c(cc1Cl)SC(C(=O)c1ccc(Cl)c(Cl)c1)NS2(=O)=O (stereo not given)	39.3 µM	> 100 µM	25.2 µM	65.9 µM	36.7 µM	> 100 µM	26.7 µM	65.6	23.5 µM	50.7 µM	49.2 µM	> 100	24.6 µM	56 µM	34.9 µM	> 100	84.7 µM	> 100 µM	22 µM	42.9 µM
COc1cc(Cn2c(SCC(=O)Nc3ccc(Cl)cc3)nc3ccccc3c2=O)cc(OC)c1OC	3.1 µM	14.5 µM	2.26 µM	9.12 µM	3.08 µM	13 µM	22.8 µM	> 100	10.4 µM	59.1 µM	14.8 µM	> 100	22.9 µM	> 100 µM	5.54 µM	18.4	2.63 µM	7.67 µM	6.29 µM	37.1 µM
COc1c2ccccc2c(O)c2c(=O)ccn(C)c12	5.48 µM	33 µM	25.6 µM	91.1 µM	8.66 µM	> 61.4 µM	2.03 µM	4.32	3.51 µM	17 µM	11.7 µM	45	5.96 µM	> 100 µM	3.69 µM	27.8	11.3 µM	55.8 µM	2.75 µM	7.5 µM
CC[C@@]1(O)C(=O)NCc2c1cc1n(c2=O)Cc2cc3c(NC(C)=O)cccc3nc2-1	> 100 µM	> 100 µM	> 100 µM	> 100 µM	> 100 µM	> 100 µM	> 100 µM	> 100	> 100 µM	> 100 µM	> 100 µM	> 100	> 30.3 µM	> 100 µM	> 100 µM	> 100	> 100 µM	> 100 µM	> 100 µM	> 100 µM
CCN(CCO)CCCOc1ccc2c(Nc3cc(CC(=O)Nc4cccc(F)c4)[nH]n3)ncnc2c1	16.3 µM	> 88.6 µM	10.6 µM	33.3 µM	19.2 µM	> 51.5 µM	14.1 µM	34	0.071 µM and 0.0456 µM	21.3 µM and > 3.81 µM	42.3 µM	> 100	15.4 µM	47.8 µM and > 2.17 µM		> 100	> 67.8 µM	> 100 µM	26.1 µM	> 59.3 µM
C[C@H](c1ccccc1)N(CCC(=O)O)C(=O)CCN(C(=O)CCN(C(=O)CCN[C@H](C)c1ccccc1)[C@H](C)c1ccccc1)[C@H](C)c1ccccc1	> 100 µM	> 100 µM	92 µM	> 100 µM	> 100 µM	> 100 µM	> 100 µM	> 100	> 100 µM	> 100 µM	> 100 µM	> 100	58.4 µM	> 100 µM	> 100 µM	> 100	> 100 µM	> 100 µM	> 100 µM	> 100 µM
O=c1[nH]c(SCc2ccccc2[N+](=O)[O-])nc2nc[nH]c12		> 100 µM		> 100 µM	> 100 µM and 40.8 µM	> 100 µM		> 100		> 100 µM		> 100		> 100 µM		> 100		> 100 µM		> 100 µM
N=C1C(c2nc3ccccc3s2)=C(O)CN1c1cc(Cl)cc(Cl)c1	46.7 µM	> 100 µM	59.3 µM	> 100 µM	23.6 µM	> 100 µM	> 100 µM	> 100	18.5 µM	> 100 µM	> 100 µM	> 100	> 100 µM	> 100 µM	89.2 µM	> 100	> 100 µM	> 100 µM	> 100 µM	> 100 µM
CC(C)COC(c1ccc2c(c1)OCO2)C(C)Br (stereo not given)		77.9 µM		68.8 µM		> 100 µM		51.7		51.5 µM		49.3		43 µM		53.6		> 100 µM		> 100 µM
COc1cccc(/C=C\c2ccnc3ccccc23)c1		> 10 µM		> 10 µM		> 10 µM		> 10		> 10 µM		> 10		> 10 µM		> 10		> 10 µM		> 10 µM
COC1=CC2CCN3Cc4cc5c(cc4C(C1O)C23)OCC5 (stereo not given)	3.61 µM	> 61.4 µM	2.97 µM	> 28 µM	2.86 µM	22.6 µM	3.44 µM	21.3	2.1 µM	> 100 µM	2.48 µM	22.8	15 µM	> 29.1 µM	3.88 µM	24.4	5.53 µM	41.9 µM	2.05 µM	11.1 µM
Nc1ccc(C(=O)Nc2ccccc2N)cc1		> 100 µM		> 100 µM		> 100 µM		> 100		> 100 µM		> 82.7		98.8 µM		> 100		> 63.1 µM		39.7 µM
Fc1ccc(-c2nn3c(COc4ccc(Cl)cc4Cl)nnc3s2)cc1Oc1ccccc1	11.5 µM	23.7 µM	0.254 µM	7.93 µM	11.6 µM	23.8 µM	16.8 µM	50.8	25.4 µM	> 100 µM	11.1 µM	23.7	18.3 µM	39.1 µM	6.2 µM	20	12.2 µM	25.2 µM	14.3 µM	28.9 µM
O=C(c1ccco1)c1c(C(F)(F)F)n([O-])c2ccc(F)cc2[n+]1=O	3 µM	13.7 µM	0.802 µM	2.55 µM	1.61 µM	3.44 µM	1.3 µM	2.75	0.926 µM	11.7 µM	5.97 µM	17.5	0.18 µM	0.573 µM	4.69 µM	17.9	1.42 µM	3.36 µM	1.21 µM	2.55 µM
c1cc2c(c(NC3=NCCN3)c1)CCCC2		> 100 µM		> 100 µM		> 100 µM		> 100		> 100 µM		> 100		> 100 µM		> 100		> 100 µM		> 100 µM
CNc1ncc2cc(-c3cc(NC(=O)NCCC(C)(C)C)c(F)cc3C)c(C)nc2n1	0.195 µM and 0.298 µM	12.7 µM and > 10 µM	0.0571 µM and 0.0903 µM	0.423 µM and 0.511 µM	0.0619 µM and 0.156 µM	1.67 µM and 1.41 µM	0.0299 µM and 0.0389 µM	> 39.4	0.473 µM and 0.332 µM	> 100 µM	0.0761 µM and 0.083 µM	> 100	0.907 µM and 0.685 µM	> 52.6 µM	1.56 µM and 1.47 µM	> 100	0.241 µM and 0.243 µM	5.07 µM and 6.79 µM	< 0.01 µM and 0.00585 µM	0.0881 µM and 0.121 µM
